In the supplement of paper PMC10307832:

Tests used:
Test in all cases: relative viability (nuclei count vs DMSO), 5 days (fraction); higher = more cells survive
[1] = compound: CC1=C(C(=NN1)C)CC2=C(C3=C(S2)N(C(=O)N(C3=O)C)CC(C)C)C(=O)N4C[C@@H](CO4)O + Nc1ncn([C@H]2C[C@H](O)[C@@H](CO)O2)c(=O)n1 [Decitabine] (partner 2 µM)
How it was run: (§1)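 Relative viability divides the nuclei count in treated wells by that in vehicle wells. Lung cancer cell lines were seeded in 1536-well plates, dosed by pin tool the next day, and fixed and stained after 5 days in one step with final 0.05% Triton X-100, 1% formaldehyde and 1 ug/ml Hoechst. Dosing was a single drug or a fixed anchor-drug dose plus five library-drug doses (not always all listed) in √10 steps, and values are medians of duplicate plates imaged at 4×.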

[2] = compound: CC1=C(C(=NN1)C)CC2=C(C3=C(S2)N(C(=O)N(C3=O)C)CC(C)C)C(=O)N4C[C@@H](CO4)O + O=C(CCCCCCC(=O)Nc1ccccc1)NO [Vorinostat] (partner 1 µM)
How it was run: as §1

IDH-C35 + Lapatinib = compound: Cc1ccccc1C(C(=O)NC1CCCCC1)N(C(=O)Cn1ccnc1C)c1cccc(F)c1 [IDH-C35] + CS(=O)(=O)CCNCc1ccc(-c2ccc3ncnc(Nc4ccc(OCc5cccc(F)c5)c(Cl)c4)c3c2)o1 [Lapatinib] (partner 2 µM)
How it was run: as §1

IDH-C35 + Alpelisib = compound: Cc1ccccc1C(C(=O)NC1CCCCC1)N(C(=O)Cn1ccnc1C)c1cccc(F)c1 [IDH-C35] + Cc1nc(NC(=O)N2CCC[C@H]2C(N)=O)sc1-c1ccnc(C(C)(C)C(F)(F)F)c1 [Alpelisib] (partner 2 µM)
How it was run: as §1

Cell Line | relative viability ([1]; first compound 0.0025 µM) | relative viability ([1]; first compound 0.007906 µM) | relative viability ([1]; first compound 0.025 µM) | relative viability ([1]; first compound 0.07906 µM) | relative viability ([1]; first compound 0.25 µM) | relative viability ([2]; first compound 0.0025 µM) | relative viability ([2]; first compound 0.007906 µM) | relative viability ([2]; first compound 0.025 µM) | relative viability ([2]; first compound 0.07906 µM) | relative viability ([2]; first compound 0.25 µM) | relative viability (IDH-C35 + Lapatinib; first compound 0.08 µM) | relative viability (IDH-C35 + Lapatinib; first compound 0.253 µM) | relative viability (IDH-C35 + Lapatinib; first compound 0.8 µM) | relative viability (IDH-C35 + Lapatinib; first compound 2.53 µM) | relative viability (IDH-C35 + Lapatinib; first compound 8 µM) | relative viability (IDH-C35 + Alpelisib; first compound 0.08 µM) | relative viability (IDH-C35 + Alpelisib; first compound 0.253 µM) | relative viability (IDH-C35 + Alpelisib; first compound 0.8 µM) | relative viability (IDH-C35 + Alpelisib; first compound 2.53 µM) | relative viability (IDH-C35 + Alpelisib; first compound 8 µM)
LK-2 | 0.261 | 0.397 | 0.268 | 0.237 | 0.273 | 0.342 | 0.272 | 0.208 | 0.266 | 0.301 | 0.836 | 1.01 | 0.758 | 0.735 | 0.932 | 1.11 | 1.05 | 0.991 | 1.1 | 1.04
LOU-NH91 | 0.83 | 0.798 | 0.839 | 0.864 | 0.823 | 1.03 | 0.875 | 0.939 | 1.07 | 1 | 0.798 | 0.813 | 0.776 | 0.749 | 0.767 | 0.746 | 0.774 | 0.712 | 0.711 | 0.706
LU99A | 0.784 | 0.979 | 0.825 | 0.901 | 0.976 | 0.462 | 0.526 | 0.505 | 0.46 | 0.575 | 1.08 | 0.909 | 0.938 | 0.984 | 1.12 | 0.49 | 0.514 | 0.553 | 0.517 | 0.562
LXF-289 | 0.432 | 0.395 | 0.354 | 0.393 | 0.443 | 0.881 | 0.748 | 0.829 | 0.671 | 0.762 | 0.9 | 0.893 | 0.91 | 0.965 | 0.877 | 1.04 | 1.03 | 1.01 | 0.994 | 1.03
NCI-H23 | 0.307 | 0.329 | 0.289 | 0.345 | 0.334 | 0.76 | 0.627 | 0.638 | 0.587 | 0.737 | 0.988 | 1.15 | 1.23 | 1.06 | 0.97 | 0.622 | 0.591 | 0.648 | 0.73 | 0.834
NCI-H322M | 0.63 | 0.736 | 0.698 | 0.659 | 0.707 | 0.876 | 0.821 | 0.857 | 0.953 | 0.801 | 0.541 | 0.59 | 0.625 | 0.529 | 0.608 | 0.878 | 0.818 | 0.743 | 0.806 | 0.837
NCI-H358 | 0.198 | 0.237 | 0.208 | 0.204 | 0.217 | 0.704 | 0.575 | 0.677 | 0.803 | 0.836 | 0.502 | 0.503 | 0.445 | 0.534 | 0.508 | 0.916 | 0.871 | 0.746 | 0.857 | 0.915
NCI-H460 | 0.512 | 0.604 | 0.502 | 0.494 | 0.557 | 0.859 | 0.689 | 0.634 | 0.723 | 0.857 | 1.19 | 1.11 | 0.978 | 0.888 | 0.963 | 0.472 | 0.504 | 0.545 | 0.549 | 0.439
NCI-H520 | 0.476 | 0.448 | 0.45 | 0.423 | 0.371 | 0.678 | 0.777 | 0.594 | 0.577 | 0.684 | 0.895 | 0.979 | 0.765 | 0.884 | 0.914 | 0.71 | 0.808 | 0.891 | 0.845 | 0.954
NCI-H596 | 1.11 | 1.1 | 1.1 | 0.989 | 1.06 | 0.783 | 0.652 | 0.625 | 0.697 | 0.479 | 1.01 | 1.04 | 1.11 | 1.16 | 1.06 | 0.552 | 0.48 | 0.555 | 0.471 | 0.446
NCI-H647 | 0.48 | 0.44 | 0.298 | 0.535 | 0.321 | 0.564 | 0.744 | 0.473 | 0.617 | 0.606 | 1.01 | 1.08 | 0.999 | 1.09 | 0.86 | 1.14 | 1.23 | 1.14 | 1.12 | 0.917
NCI-H650 | 0.321 | 0.39 | 0.336 | 0.329 | 0.361 | 0.549 | 0.516 | 0.393 | 0.35 | 0.545 | 0.588 | 0.824 | 0.85 | – | 0.884 | 1.07 | 1.13 | 1.17 | – | 1.03
NCI-H661 | 0.521 | 0.623 | 0.546 | 0.542 | 0.58 | 0.787 | 0.863 | 0.746 | 0.805 | 0.834 | 0.634 | 0.447 | 0.362 | 0.519 | 0.351 | 0.589 | 0.852 | 0.529 | 0.689 | 0.711
NCI-H727 | 0.807 | 0.915 | 0.862 | 0.943 | 0.969 | 1.16 | 1.25 | 1.05 | 1.05 | 1.13 | 0.874 | 0.779 | 0.801 | 0.728 | 0.947 | 0.536 | 0.719 | 0.543 | 0.582 | 0.83
NCI-H838 | 0.447 | 0.489 | 0.43 | 0.455 | 0.444 | 0.696 | 0.75 | 0.691 | 0.777 | 0.704 | 1.21 | 1.07 | 0.882 | 1.02 | 1.02 | 1.03 | 0.92 | 0.951 | 0.93 | 0.949
NCI-H1355 | 0.443 | 0.375 | 0.346 | 0.324 | 0.332 | 0.72 | 0.632 | 0.66 | 0.55 | 0.662 | 1.03 | 0.976 | 0.945 | 0.97 | 0.934 | 0.894 | 0.787 | 0.801 | 0.864 | 0.849
